Test results from patent US20140322744A1, “CLONABLE TAG FOR CORRELATIVE LIGHT AND ELECTRON MICROSCOPY LABELING” (INSTITUT CURIE, priority 2011, published 2014).

Test system: E. coli K-12
Test: Minimal Inhibitory Concentration (MIC) growth test of EuCl3
Type: cell-based
Source text: The inventors were first interested in evaluating Eu toxicity in their working conditions. To this purpose, they have submitted E. coli to a serial of growing tests called Minimal Inhibitory Concentration (MIC). This test aimed to determine the lowest concentration able to inhibit the bacteria growth. It consisted in growing bacteria in presence of several concentrations of the tested compound.
Serial dilution series of the substance to be tested were inoculated with bacteria at 0.3 D.O550 nm diluted 1/16000 in culture medium. D.O550 nm was followed until stationary phase. Minimal concentration of the test substance preventing stationary phase was considered as MIC.
For the Eu MIC determination, the inventors have tested EuCl3 concentrations between 100 μM and 2 mM. E. coli K-12 and pBAD arabinose inducible MTtag transformed E. coli K-12 were tested. E. coli K12 were transformed by electroporation with the pBAD plasmid down control of BAD promoter (Guzman, L. M., et al. J Bacteriol 177, 4121-4130 (1995); Khlebnikov, A. & Keasling, J. D. Biotechnol. Prog. 18, 672-674 (2002)). Bacteria pre-cultures were produced at 37° C. in Luria-Bertani (LB) medium with added ampicillin ([…]) in transformed strain. The pre-cultures were used to inoculate tubes of minimum media M9 (with or without ampicillin) until exponential phase D.O550 nm≈0.3. Then, 1/16000 dilutions were prepared in M9 medium (with or without ampicillin). 1 μl of the diluted bacteria were added to 200 μl of M9-EuCl3 at different concentrations in 96 wells plates. Bacterial grow was followed until stationary phase. The D.O550 nm was measured on a Tecan Infinite 200 PRO.

[Cl][Eu]([Cl])[Cl] [EuCl3]
Effect on bacterial growth (E. coli K-12 MG1655 growth curve, several concentrations of Europium (FIG. 1)): doesn't have a dramatic negative effect on bacterial growth | MIC: EuCl3 concentration until which bacteria is viable (E. coli K-12 and MTtag transformed E. coli K-12, M9 medium, 100 μM to 2 mM tested, repeated 10 times): higher than 2 mM | Precipitation above maximal concentration tested (M9 medium, maximal concentration tested 2 mM): precipitates at higher concentrations | EuCl3 concentration after which growing slow down is observed (does not impact bacterial viability): > 1 mM | Toxicity for E. coli K-12 (transformed or not): not toxic
